# Assay results from US11492335B2, “Aryl or heteroaryl triazolone derivatives or salts thereof, or pharmaceutical compositions comprising the same” (YUHAN CORPORATION, priority 2018, dated 2022).
# Structures can show the parent of a compound that is named as a salt. Where two headings read alike, the source gives them in different places.
# Key:
# Type in all cases: biochemical
# [1] = molecular target: T1, recombinant human VAP-1 (Homo sapiens, UniProt Q16853); experiment: Activity on recombinant human VAP-1, Amplex Red HRP-coupled hydrogen peroxide assay, benzylamine substrate; conditions: recombinant human VAP-1, benzylamine substrate, read-out: Inhibitory Activity (IC50, nM) human VAP-1
# T1 construct: purchased R&D systems
# T1 sequence (Q16853 1-763): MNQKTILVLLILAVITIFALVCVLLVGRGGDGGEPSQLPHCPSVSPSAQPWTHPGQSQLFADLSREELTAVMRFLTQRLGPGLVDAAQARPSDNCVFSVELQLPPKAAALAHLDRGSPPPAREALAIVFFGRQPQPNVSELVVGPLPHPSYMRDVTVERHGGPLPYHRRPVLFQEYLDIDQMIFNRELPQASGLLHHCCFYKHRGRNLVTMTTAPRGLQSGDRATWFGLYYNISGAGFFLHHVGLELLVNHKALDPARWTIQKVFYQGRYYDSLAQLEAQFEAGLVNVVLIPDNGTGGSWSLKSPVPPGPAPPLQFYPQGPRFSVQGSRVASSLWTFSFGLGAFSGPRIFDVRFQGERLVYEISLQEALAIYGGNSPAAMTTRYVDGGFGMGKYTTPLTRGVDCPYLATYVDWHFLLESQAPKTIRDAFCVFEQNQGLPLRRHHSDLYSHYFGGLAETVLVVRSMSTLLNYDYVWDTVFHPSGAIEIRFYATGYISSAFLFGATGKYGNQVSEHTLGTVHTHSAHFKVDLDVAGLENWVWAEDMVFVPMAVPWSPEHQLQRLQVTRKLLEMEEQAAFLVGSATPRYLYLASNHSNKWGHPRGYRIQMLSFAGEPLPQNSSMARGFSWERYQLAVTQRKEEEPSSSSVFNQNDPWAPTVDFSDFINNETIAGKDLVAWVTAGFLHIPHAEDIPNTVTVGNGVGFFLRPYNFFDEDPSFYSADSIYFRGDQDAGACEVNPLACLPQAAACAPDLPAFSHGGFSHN
# Procedure, shortened: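 Compounds were preincubated with purified enzyme in 50 mM sodium phosphate pH 7.4 at 37 °C for 30 min, then 200 uM Amplex Red, 1 mM benzylamine and 1 U/mL HRP were added. Resorufin fluorescence (ex 544/em 590 nm) was followed over 1-2 h; IC50 came from 4-parameter fits of signal-rate inhibition.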
# [2] = molecular target: T2, recombinant human MAO-B (monoamine oxidase-B) (Homo sapiens, UniProt P27338); experiment: Activity on recombinant human MAO-B, Amplex Red method, 1 mM benzylamine substrate; conditions: read-out: Inhibitory Activity (IC50, nM) MAO-B
# T2 construct: purchased Sigma-Aldrich
# T2 sequence (P27338 1-520): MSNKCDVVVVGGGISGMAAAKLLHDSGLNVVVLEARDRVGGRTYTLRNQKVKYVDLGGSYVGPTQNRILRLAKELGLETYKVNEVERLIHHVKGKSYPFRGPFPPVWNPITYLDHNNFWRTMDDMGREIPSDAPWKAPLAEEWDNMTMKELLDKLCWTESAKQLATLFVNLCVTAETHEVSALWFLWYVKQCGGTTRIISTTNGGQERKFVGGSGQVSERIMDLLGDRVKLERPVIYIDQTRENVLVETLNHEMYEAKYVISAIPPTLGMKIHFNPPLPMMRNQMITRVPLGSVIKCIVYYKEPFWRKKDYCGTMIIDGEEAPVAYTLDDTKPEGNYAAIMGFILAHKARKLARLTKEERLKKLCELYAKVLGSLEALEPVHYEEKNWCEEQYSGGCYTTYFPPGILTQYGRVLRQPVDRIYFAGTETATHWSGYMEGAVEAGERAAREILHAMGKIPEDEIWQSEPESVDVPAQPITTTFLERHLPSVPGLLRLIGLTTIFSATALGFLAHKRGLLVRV
# Procedure, shortened: (§1)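 8-point, 1:3 dose-response, four-parameter logistic IC50 from reduction in fluorescence rate versus DMSO control. HRP/Amplex Red detection of H2O2 (ex 544, em 590 nm) after 30 min, 37 °C compound–enzyme preincubation in pH 7.4 phosphate buffer. MAO-A substrate: 0.5 mM tyramine; MAO-B: 1 mM benzylamine.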
# [3] = molecular target: T3, recombinant human MAO-A (monoamine oxidase-A) (Homo sapiens, UniProt P21397); experiment: Activity on recombinant human MAO-A, Amplex Red method, 0.5 mM tyramine substrate; conditions: read-out: Inhibitory Activity (IC50, nM) MAO-A
# T3 construct: purchased Sigma-Aldrich
# T3 sequence (P21397 1-527): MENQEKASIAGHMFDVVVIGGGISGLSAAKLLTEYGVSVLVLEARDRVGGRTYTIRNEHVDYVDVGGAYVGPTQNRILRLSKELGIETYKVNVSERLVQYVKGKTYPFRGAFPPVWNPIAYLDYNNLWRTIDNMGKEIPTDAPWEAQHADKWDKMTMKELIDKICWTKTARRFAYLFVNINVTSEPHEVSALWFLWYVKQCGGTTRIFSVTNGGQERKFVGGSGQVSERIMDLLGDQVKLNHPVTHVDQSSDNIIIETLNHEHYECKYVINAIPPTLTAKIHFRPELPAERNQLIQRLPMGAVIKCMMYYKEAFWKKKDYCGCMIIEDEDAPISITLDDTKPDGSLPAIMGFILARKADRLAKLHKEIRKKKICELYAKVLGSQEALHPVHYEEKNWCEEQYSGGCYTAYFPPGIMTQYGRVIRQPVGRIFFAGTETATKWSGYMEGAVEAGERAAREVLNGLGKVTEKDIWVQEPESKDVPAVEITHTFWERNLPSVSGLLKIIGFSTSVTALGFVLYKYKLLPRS
# Procedure, shortened: as §1
# [4] = molecular target: T4, recombinant human DAO (diamine oxidase) (Homo sapiens, UniProt P19801); experiment: Activity on recombinant human DAO, Amplex Red method, 1 mM putrescine substrate; conditions: recombinant human DAO, read-out: Inhibitory Activity (IC50, nM) DAO
# T4 construct: purchased R&D systems
# T4 sequence (P19801 20-751): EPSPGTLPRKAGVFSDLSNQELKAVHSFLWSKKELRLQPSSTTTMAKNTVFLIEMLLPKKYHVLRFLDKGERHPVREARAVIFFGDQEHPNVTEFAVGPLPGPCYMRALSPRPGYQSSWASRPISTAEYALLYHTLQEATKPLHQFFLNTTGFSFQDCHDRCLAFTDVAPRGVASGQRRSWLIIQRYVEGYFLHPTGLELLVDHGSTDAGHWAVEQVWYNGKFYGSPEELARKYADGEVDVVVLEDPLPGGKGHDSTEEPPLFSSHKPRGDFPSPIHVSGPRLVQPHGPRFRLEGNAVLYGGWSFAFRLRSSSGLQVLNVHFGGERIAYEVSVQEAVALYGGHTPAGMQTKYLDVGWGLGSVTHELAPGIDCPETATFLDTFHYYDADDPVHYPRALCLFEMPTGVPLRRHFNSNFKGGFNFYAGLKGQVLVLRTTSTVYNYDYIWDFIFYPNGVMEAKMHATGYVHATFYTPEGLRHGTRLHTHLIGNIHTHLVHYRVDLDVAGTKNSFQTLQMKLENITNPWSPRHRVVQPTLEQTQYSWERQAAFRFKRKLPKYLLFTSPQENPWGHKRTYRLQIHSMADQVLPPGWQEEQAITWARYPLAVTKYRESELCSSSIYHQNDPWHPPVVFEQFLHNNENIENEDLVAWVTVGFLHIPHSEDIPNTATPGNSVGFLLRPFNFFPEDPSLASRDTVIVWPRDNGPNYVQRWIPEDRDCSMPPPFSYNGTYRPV
# Procedure, shortened: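 Inhibition of recombinant human DAO (diamine oxidase, R&D systems) was assessed with the Amplex Red Hydrogen Peroxide Assay Kit. Hydrogen peroxide produced from 1 mM putrescine was detected through an HRP-coupled reaction that converts Amplex Red into fluorescent resorufin, read at 544 nm excitation and 590 nm emission. IC50 values came from four-parameter logistic fits in GraphPad Prism.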
# [5] = 1 mM putrescine, * = between 10 and 100 nM, ** = between 300 and 1000 nM
Structure (SMILES),IC50 ([1]; 30 min preincubation at 37° C.),IC50 ([2]; 1 mM benzylamine),IC50 ([3]; 0.5 mM tyramine),"IC50 [4, 5]",IC50 [1],IC50 ([2]; 1 mM benzylamine substrate),IC50 ([3]; 0.5 mM tyramine substrate),IC50 ([4]; 1 mM putrescine substrate)
"NC/C(=C/F)Cn1ncn(-c2cccc(Br)c2)c1=O [Example 3, 2-[(2Z)-2-(aminomethyl)-3-fluoroprop-2-en-1-yl]-4-(3-bromophenyl)-2,4-dihydro-3H-1,2,4-triazol-3-one hydrochloride]",2.5 nM,121 nM,3500 nM,542 nM,–,–,–,–
"NC/C(=C\F)Cn1ncn(-c2cc(-c3ccc(-c4ccon4)cc3)ccn2)c1=O [Example 167, 2-[(2E)-2-(aminomethyl)-3-fluoroprop-2-en-1-yl]-4-{4-[4-(1,2-oxazol-3-yl)phenyl]pyridin-2-yl}-2,4-dihydro-3H-1,2,4-triazol-3-one]",–,–,–,–,1 nM,> 10000 nM,> 100000 nM,< 30 nM
"Cc1cc(-n2cnn(C/C(=C/F)CN)c2=O)ncc1-c1cccc(-c2nc[nH]n2)c1 [Example 158, 2-[(2E)-2-(aminomethyl)-3-fluoroprop-2-en-1-yl]-4-{4-methyl-5-[3-(1H-1,2,4-triazol-3-yl)phenyl]pyridin-2-yl}-2,4-dihydro-3H-1,2,4-triazol-3-one]",–,–,–,–,0.18 nM,1940 nM,9600 nM,< 100 nM
"NC/C(=C\F)Cn1ncn(-c2cccc(-c3ccc(-c4noc(C5CC5)n4)cc3)n2)c1=O [Example 178, 2-[(2E)-2-(aminomethyl)-3-fluoroprop-2-en-1-yl]-4-{6-[4-(5-cyclopropyl-1,2,4-oxadiazol-3-yl)phenyl]pyridin-2-yl}-2,4-dihydro-3H-1,2,4-triazol-3-one hydrochloride]",–,–,–,–,1.4 nM,5490 nM,74000 nM,< 10 nM
"CC(=O)Nc1ccc(-c2cccc(-n3cnn(C/C(=C\F)CN)c3=O)c2)cc1 [Example 56, N-(3′-{1-[(2Z)-2-(aminomethyl)-3-fluoroprop-2-en-1-yl]-5-oxo-1,5-dihydro-4H-1,2,4-triazol-4-yl}biphenyl-4-yl)acetamide hydrochloride]",0.75 nM,> 10000 nM,5100 nM,110 nM,–,–,–,–
"COc1cc(-n2cnn(C/C(=C/F)CN)c2=O)ccc1Br [Example 18, 2-[(2E)-2-(aminomethyl)-3-fluoroprop-2-en-1-yl]-4-(4-bromo-3-methoxyphenyl)-2,4-dihydro-3H-1,2,4-triazol-3-one hydrochloride]",1.4 nM,58 nM,> 100000 nM,21 nM,–,–,–,–
"CC(=O)Nc1ccc(-c2cccc(-c3cccc(-n4cnn(C/C(=C/F)CN)c4=O)c3)c2)cc1 [Example 69, N-(3″-{1-[(2E)-2-(aminomethyl)-3-fluoroprop-2-en-1-yl]-5-oxo-1,5-dihydro-4H-1,2,4-triazol-4-yl}-1,1′:3′,1″-terphenyl-4-yl)acetamide hydrochloride]",0.63 nM,1100 nM,4910 nM,11 nM,–,–,–,–
"COc1ccc(-c2cccc(-n3cnn(C/C(=C/F)CN)c3=O)c2)cn1 [Example 83, 2-[(2E)-2-(aminomethyl)-3-fluoroprop-2-en-1-yl]-4-[3-(6-methoxypyridin-3-yl)phenyl]-2,4-dihydro-3H-1,2,4-triazol-3-one hydrochloride]",0.88 nM,2460 nM,> 100000 nM,< 30 nM,–,–,–,–
"NC/C(=C\F)Cn1ncn(-c2cc(C#Cc3ccccn3)ccn2)c1=O [Example 244, 2-[(2E)-2-(aminomethyl)-3-fluoroprop-2-en-1-yl]-4-[4-(pyridin-2-ylethynyl)pyridin-2-yl]-2,4-dihydro-3H-1,2,4-triazol-3-one hydrochloride]",–,–,–,–,0.8 nM,100 nM,> 100000 nM,12 nM
"Cc1ccc(-c2cccc(-c3noc(C4CC4)n3)c2)nc1-n1cnn(C/C(=C/F)CN)c1=O [Example 210, 2-[(2E)-2-(aminomethyl)-3-fluoroprop-2-en-1-yl]-4-{6-[3-(5-cyclopropyl-1,2,4-oxadiazol-3-yl)phenyl]-3-methylpyridin-2-yl}-2,4-dihydro-3H-1,2,4-triazol-3-one hydrochloride]",–,–,–,–,52 nM,> 10000 nM,> 100000 nM,4400 nM
"NC/C(=C\F)Cn1ncn(-c2ccnc(-c3ccc(C(=O)N4CCOCC4)cc3)c2)c1=O [Example 208, 2-[(2E)-2-(aminomethyl)-3-fluoroprop-2-en-1-yl]-4-{2-[4-(morpholin-4-ylcarbonyl)phenyl]pyridin-4-yl}-2,4-dihydro-3H-1,2,4-triazol-3-one hydrochloride]",–,–,–,–,0.89 nM,> 10000 nM,> 100000 nM,< 10 nM
